Some test systems named below: OVCAR-8 ovarian; A549 NSCLC; RXF 393 renal; HOP-62 NSCLC; SN12C renal; PC-3 prostate; UO-31 renal; SK-MEL-5 melanoma; A498 renal; 786-0 renal; COLO 205 colon; OVCAR-5 ovarian; KM12 colon; EKVX NSCLC; HL-60(TB) leukemia; HOP-92 NSCLC; RPMI-8226 leukemia; NCI-H522 lung.
Holding throughout (assay): NCI-60 cell line screen, 48 h

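Results reflect a 48-hour exposure of cells in 96-well plates to compound at five concentrations. TGI denotes the concentration required for complete inhibition of growth.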

Take `C=CC[C@@]1([C@H](C=C)COCc2ccc(OC)cc2)CC[C@]2(C)OC(C)(C)[C@@H](c3ccccc3)N2C1=S`: the TGI with OVCAR-8 ovarian, in the assay on A549 NSCLC, in the assay on RXF 393 renal, in the assay with HOP-62 NSCLC, in the assay on SN12C renal and in the assay with PC-3 prostate was over 100 µM in each case. Moreover, the TGI was over 100 µM in the assay with UO-31 renal; 61.8 µM with SK-MEL-5 melanoma; over 100 µM in the assay with A498 renal; over 100 µM with 786-0 renal; 41.6 µM in the assay with COLO 205 colon; over 100 µM with OVCAR-5 ovarian. Also, the TGI in the assay with KM12 colon, with EKVX NSCLC, in the assay on HL-60(TB) leukemia, in the assay on HOP-92 NSCLC, with RPMI-8226 leukemia and in the assay with NCI-H522 lung was over 100 µM in each case.

Turning to `COC(=O)c1c2c(cc3c1CC1(Cc4ccc(C(C)=O)cc4C1)C3)CCC2` (configuration not stated), the TGI in the assay with OVCAR-8 ovarian was over 100 µM; with A549 NSCLC, over 100 µM; in the assay on RXF 393 renal, 80 µM; in the assay on HOP-62 NSCLC, over 100 µM; with SN12C renal, over 100 µM; in the assay with PC-3 prostate, 82.2 µM. The TGI in the assay with UO-31 renal was over 100 µM; in the assay on SK-MEL-5 melanoma, 45.4 µM; in the assay with A498 renal it was over 100 µM; in the assay with 786-0 renal, over 100 µM; in the assay on COLO 205 colon, over 100 µM; in the assay on OVCAR-5 ovarian, over 100 µM. The TGI in the assay on KM12 colon, in the assay on EKVX NSCLC, with HL-60(TB) leukemia, in the assay on HOP-92 NSCLC, with RPMI-8226 leukemia and in the assay on NCI-H522 lung was over 100 µM each time.

Consider `COC(=O)C(Cc1ccc(Oc2cc(CC(NC(=O)c3ccccc3)C(=O)OC)ccc2OC)cc1)NC(=O)c1ccccc1` (configuration not stated), for which the TGI in the assay with OVCAR-8 ovarian is over 60.9 µM; in the assay on A549 NSCLC, over 100 µM; with RXF 393 renal, 28.5 µM; in the assay with HOP-62 NSCLC, over 100 µM; with SN12C renal, 21.3 µM; in the assay on PC-3 prostate it was over 85.8 µM. The TGI in the assay with UO-31 renal is 24.2 µM; with SK-MEL-5 melanoma it was 32.9 µM; in the assay with A498 renal, over 100 µM; in the assay on 786-0 renal, 30 µM; in the assay on COLO 205 colon, over 73.2 µM; in the assay with OVCAR-5 ovarian it was over 100 µM. The TGI in the assay on KM12 colon is over 100 µM; in the assay on EKVX NSCLC, over 86.9 µM; in the assay on HL-60(TB) leukemia, over 57.3 µM; in the assay with HOP-92 NSCLC, over 65.1 µM; with RPMI-8226 leukemia, over 69.3 µM; in the assay on NCI-H522 lung, 27.2 µM.

Turning to `COc1ccc(N2C(=O)C(C)SC2c2cc3cc(Br)ccc3nc2Cl)cc1` (configuration not stated), the TGI in the assay with OVCAR-8 ovarian is over 100 µM; with A549 NSCLC, over 100 µM; with RXF 393 renal it was 93.6 µM; in the assay with HOP-62 NSCLC, over 100 µM; in the assay with SN12C renal it was over 100 µM; in the assay on PC-3 prostate, over 100 µM. Moreover, the TGI in the assay on UO-31 renal, with SK-MEL-5 melanoma, in the assay on A498 renal, in the assay on 786-0 renal, in the assay with COLO 205 colon and in the assay on OVCAR-5 ovarian was over 100 µM each time. In addition, the TGI with KM12 colon was over 100 µM; in the assay on EKVX NSCLC, 98.5 µM; in the assay on HL-60(TB) leukemia, 74.7 µM; in the assay on HOP-92 NSCLC, 82.9 µM; in the assay with RPMI-8226 leukemia it was over 100 µM; in the assay on NCI-H522 lung, 78.6 µM.

These data come from PubChem BioAssay (NCI).
